For the test, the target named is Cdr1 (Candida albicans, UniProt Q5ANA3). Kind of test: microscale thermophoresis, Alexa Fluor 647-labelled Cdr1, Hill fit. The test is classed as binding. For orientation: MST reads how a fluorescent partner responds to local heating, with and without ligand.

This passage reports Kd results from publication doi:10.1101/2024.10.28.620768v1 (biorxiv, 2024).

The Kd is the equilibrium constant for the complex coming apart. The low end stands for a tighter complex, the high end for a looser complex.

Chain of Cdr1 (Q5ANA3 whole entry): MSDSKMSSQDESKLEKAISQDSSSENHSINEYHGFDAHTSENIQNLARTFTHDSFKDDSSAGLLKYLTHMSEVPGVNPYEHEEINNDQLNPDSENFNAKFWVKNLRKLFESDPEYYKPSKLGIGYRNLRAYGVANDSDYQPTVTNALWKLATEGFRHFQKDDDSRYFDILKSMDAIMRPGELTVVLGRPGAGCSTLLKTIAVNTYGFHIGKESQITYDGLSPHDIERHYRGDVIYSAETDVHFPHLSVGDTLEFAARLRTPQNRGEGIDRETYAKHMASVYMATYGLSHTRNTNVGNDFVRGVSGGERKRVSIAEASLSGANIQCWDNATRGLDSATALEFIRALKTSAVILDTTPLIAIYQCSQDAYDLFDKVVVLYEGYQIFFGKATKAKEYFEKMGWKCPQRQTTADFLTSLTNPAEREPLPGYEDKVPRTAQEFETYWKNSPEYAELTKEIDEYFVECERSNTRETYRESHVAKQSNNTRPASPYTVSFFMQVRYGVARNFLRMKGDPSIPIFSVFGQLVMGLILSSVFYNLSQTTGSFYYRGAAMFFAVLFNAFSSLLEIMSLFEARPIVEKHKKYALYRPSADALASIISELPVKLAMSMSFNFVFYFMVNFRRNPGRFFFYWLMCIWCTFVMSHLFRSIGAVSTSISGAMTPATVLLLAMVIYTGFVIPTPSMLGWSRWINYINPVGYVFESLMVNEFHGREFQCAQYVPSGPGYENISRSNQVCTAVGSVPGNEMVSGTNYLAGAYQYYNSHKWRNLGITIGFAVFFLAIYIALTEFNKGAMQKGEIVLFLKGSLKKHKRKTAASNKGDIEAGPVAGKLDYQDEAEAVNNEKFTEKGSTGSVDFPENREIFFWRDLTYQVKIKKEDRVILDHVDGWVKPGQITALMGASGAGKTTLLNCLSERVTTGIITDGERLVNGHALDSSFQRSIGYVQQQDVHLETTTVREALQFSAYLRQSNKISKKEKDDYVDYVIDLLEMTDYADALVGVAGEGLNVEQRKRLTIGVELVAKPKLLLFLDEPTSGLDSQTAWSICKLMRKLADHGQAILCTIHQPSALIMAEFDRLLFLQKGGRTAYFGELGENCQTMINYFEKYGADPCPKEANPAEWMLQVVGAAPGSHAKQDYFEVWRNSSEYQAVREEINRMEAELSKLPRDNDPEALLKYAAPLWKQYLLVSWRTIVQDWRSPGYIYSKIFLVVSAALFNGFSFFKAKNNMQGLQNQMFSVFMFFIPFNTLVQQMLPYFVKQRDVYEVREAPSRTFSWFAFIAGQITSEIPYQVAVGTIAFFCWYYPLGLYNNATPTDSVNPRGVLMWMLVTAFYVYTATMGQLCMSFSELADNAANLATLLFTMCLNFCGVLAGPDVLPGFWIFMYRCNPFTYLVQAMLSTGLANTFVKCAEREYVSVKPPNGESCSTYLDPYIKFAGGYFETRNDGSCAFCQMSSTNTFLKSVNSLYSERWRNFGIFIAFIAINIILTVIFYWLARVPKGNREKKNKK

The molecule `O=C1OC2(c3cc(F)c(O)cc3Oc3cc(O)c(F)cc32)c2ccccc21` [Oregon Green 488] displayed a Kd of 32.8 ± 8.2 µM.

For the molecule `CCN=c1cc2oc3cc(NCC)c(C)cc3c(-c3ccccc3C(=O)OCC)c-2cc1C` [Rhodamine 6G], the Kd was 59.8 ± 7.1 µM.
